Experimental data from patent publication US20100286145A1, “ISOPHTHALAMIDE DERIVATIVES INHIBITING BETA-SECRETASE ACTIVITY” (CoMentis, Inc., priority 2007, published 2010).

Key:
[1] = test system: Aβ production in Chinese hamster ovary cells that over-express human APP695 with the London and Swedish mutations; experiment: Cellular Aβ IC50 determination (Aβ40 sandwich ELISA); type: cell-based; conditions: Cricetulus griseus; cellular Aβ production; read-out: IC50
Summary of the method: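 CHO cells overexpressing human APP695 with London and Swedish mutations, seeded at 10% confluency, treated with compounds up to about 4 μM final (0.4% DMSO). Secreted Aβ40 measured by sandwich ELISA relative to control and fitted to a 4-parameter IC50 model.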

[2] = target: memapsin 2 (Homo sapiens, UniProt P56817); experiment: Inhibition of memapsin 2 beta-secretase activity (fluorogenic substrate FS-2); type: biochemical; conditions: memapsin 2, pH 4, 37° C., 20 minutes pre-incubation; read-out: M2Ki
Summary of the method: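 Memapsin 2 pre-incubated 20 min with compound at pH 4, 37° C, then FS-2 substrate (MCA-SEVNLDAEFK-DNP, APP Swedish cleavage site) added. Rate of fluorescence increase compared with uninhibited controls, fitted to a tight-binding inhibition model.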

[3] = target: cathepsin D (Homo sapiens, UniProt P07339); experiment: Inhibition of cathepsin D activity (substrate peptide ELDLAVEFWHDR, MALDI-TOF); type: biochemical; conditions: read-out: CDKi
[4] = target: T1, memapsin 1 (Homo sapiens, UniProt Q9Y5Z0); experiment: Inhibition of memapsin 1 beta-secretase activity (substrate peptide ELDLAVEFWHDR, MALDI-TOF); type: biochemical; conditions: read-out: M1Ki
T1 sequence (Q9Y5Z0 63-518): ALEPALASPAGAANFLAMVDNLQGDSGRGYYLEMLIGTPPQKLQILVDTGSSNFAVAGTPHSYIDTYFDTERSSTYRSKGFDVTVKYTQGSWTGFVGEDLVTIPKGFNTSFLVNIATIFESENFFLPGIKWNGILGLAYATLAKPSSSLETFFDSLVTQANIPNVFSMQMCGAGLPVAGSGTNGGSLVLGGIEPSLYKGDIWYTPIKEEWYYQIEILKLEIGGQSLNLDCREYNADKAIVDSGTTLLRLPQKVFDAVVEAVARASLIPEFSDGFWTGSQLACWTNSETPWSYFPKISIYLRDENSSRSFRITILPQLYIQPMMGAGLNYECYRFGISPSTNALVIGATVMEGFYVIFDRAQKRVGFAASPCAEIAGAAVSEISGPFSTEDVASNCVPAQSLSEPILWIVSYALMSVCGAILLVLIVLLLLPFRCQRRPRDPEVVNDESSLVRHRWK

[5] = Brain pharmacokinetic analysis / brain penetration in rats, i.v. bolus; type: in vivo; conditions: male, Sprague-Dawley, rat, in vivo, iv, 10 mg/kg
Description: Quantitative analysis was used to determine the concentration of a test inhibitor, N1-((2S,3R)-4-((5-(2-fluoropropan-2-yl)pyridin-3-yl)methylamino)-3-hydroxy-1-phenylbutan-2-yl)-N3-methyl-N3-((4-methylthiazol-2-yl)methyl)isophthalamide, in biological tissues. The test inhibitor was extracted from a variety of biological samples followed by its selective identification and quantification from a standard curve prepared in the same extracted biological matrix. Briefly, this extraction is accomplished through a simple protein precipitation technique performed on collected plasma. The resultant extractions are then quantified using the LC/MS protocol as detailed herein.
Quantitative analysis was performed through LC/MS analysis. The system was composed of an Eksigent Express LC 100 microflow HPLC system, coupled with an Eksigent CXP C-8AR 0.3*50 mm, or other suitable column, and a Thermo TSQuantum Classic triple quadrupole mass spectrometer running in positive ion, SRM mode. The HPLC buffers were 99.5% H2O, 0.5% formic acid (buffer A) and 99.5% acetonitrile, 0.5% formic acid (buffer B). Typically, a 10 μl aliquot was injected onto the column followed by a 1.5 minute chromatographic analysis. This analysis was conducted at a 20 μl/min flow rate, and composed of a gradient from 15% B to 90% B followed by a 98% B flush to facilitate compound separation and quantitation. Each sample was analyzed in duplicate, with QC, and system blank samples run after every sample set. The column effluent was analyzed in real time by MS/MS to allow the positive identification and quantification of the test inhibitor by compound fingerprint analysis. This was accomplished by allowing only species of 586.3 Da to pass through the first quadrupole, followed by collision induced decay in quadrupole two and scanning analysis of selected daughter ions specific to the test compound in quadrupole three. The collected data was analyzed using the LCQuan software package from Thermo Electron, to determine the levels of the test compound in the samples.
Male Sprague-Dawley Rats (200-400 g) were obtained from Taconic Farms (Hudson, N.Y.) with a pre-implanted jugular vein cannula (JVC) for blood sampling. A solution (5 mg/mL, free base equivalents) of the test inhibitor, N1-((2S,3R)-4-((5-(2-fluoropropan-2-yl)pyridin-3-yl)methylamino)-3-hydroxy-1-phenylbutan-2-yl)-N3-methyl-N3-((4-methylthiazol-2-yl)methyl)isophthalamide mono-citrate salt, was prepared freshly in 35% hydroxypropyl-β-cyclodextrin (HPBCD). Intravenous bolus injection was conducted using a 25 gauge needle via the tail vein. Animals were supplied with water and a commercial rodent diet ad libitum prior to and during the study.
Blood samples (˜100 μl at each time point) for plasma pharmacokinetic (PK) analysis were collected from the JVC cannula into lithium-heparin tubes at 2 min, 5 min, 15 min, 30 min, 45 min, 1 hr, 2 hr, 4 hr, 6 hr and 24 hr post-dose (Group A in Table 2). For compartmental PK analysis, blood and brain were collected from animals in Group B (Table 2) at 15 min, 1 hr, 2 hr, 4 hr, and 6 hr post-dose, with three rats assigned to each time point. Animals were deeply anesthetized with isoflurane and blood collected by cardiocentesis. Plasma separated by centrifugation at 6000 rpm×10 min. Brain hemispheres were subsequently harvested and snap frozen in liquid nitrogen. Plasma and brain samples were subsequently stored at −70° C.
Bioanalysis of the test inhibitor from plasma and brain extracts was performed according to standard procedures. Briefly, 20 μl of plasma was extracted with 100 μl of acetonitrile using a 96-well Solvinert filter plate (Millipore). Samples were subjected to LC/MS/MS analysis using an Eksigent Express LC 100 microflow HPLC system, coupled with an Eksigent CXP C-18AR 0.3*50 mm column, and a Thermo TSQuantum Classic triple quadrupole mass spectrometer running in positive ion, SRM mode. […]

Sequence of cathepsin D (P07339 65-412, species assumed): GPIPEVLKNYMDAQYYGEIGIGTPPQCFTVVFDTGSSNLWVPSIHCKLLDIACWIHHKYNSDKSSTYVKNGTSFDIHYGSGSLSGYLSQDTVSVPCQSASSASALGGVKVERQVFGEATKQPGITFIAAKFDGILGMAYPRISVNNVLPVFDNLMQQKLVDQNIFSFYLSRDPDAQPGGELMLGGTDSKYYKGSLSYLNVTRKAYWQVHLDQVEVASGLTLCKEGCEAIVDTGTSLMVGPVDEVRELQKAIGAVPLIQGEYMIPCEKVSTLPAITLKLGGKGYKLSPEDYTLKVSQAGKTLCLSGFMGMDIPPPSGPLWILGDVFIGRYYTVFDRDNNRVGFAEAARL
Sequence of memapsin 2 (P56817 46-501): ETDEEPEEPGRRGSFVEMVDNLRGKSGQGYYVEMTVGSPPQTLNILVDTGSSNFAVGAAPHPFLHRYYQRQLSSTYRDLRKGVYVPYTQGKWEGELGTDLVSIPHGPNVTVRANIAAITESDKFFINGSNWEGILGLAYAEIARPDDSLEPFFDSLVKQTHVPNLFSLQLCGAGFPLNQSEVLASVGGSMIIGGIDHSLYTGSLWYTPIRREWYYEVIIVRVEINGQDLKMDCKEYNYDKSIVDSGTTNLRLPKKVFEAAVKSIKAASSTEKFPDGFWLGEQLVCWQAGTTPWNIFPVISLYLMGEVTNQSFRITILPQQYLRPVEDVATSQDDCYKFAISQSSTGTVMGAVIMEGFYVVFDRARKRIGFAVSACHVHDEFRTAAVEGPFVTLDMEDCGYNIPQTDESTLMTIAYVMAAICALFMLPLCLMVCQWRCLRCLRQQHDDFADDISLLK

SMILES | IC50 [1] [nM] | Ki [2] [nM] | Ki [3] [nM] | Ki [4] [nM] | Penetration (%), brain relative to plasma AUC24 hr [5] [%]
COc1cc(CNC[C@@H](O)[C@H](Cc2ccccc2)NC(=O)c2cccc(C(=O)N(C)Cc3nc(C)cs3)c2)cc(OC)c1 [Compound 8, N1-((2S,3R)-4-(3,5-dimethoxybenzylamino)-3-hydroxy-1-phenylbutan-2-yl)-N3-methyl-N3-((4-methylthiazol-2-yl)methyl)isophthalamide] | < 1000 | < 300 | < 300 | 301 to 500 | 
Cc1cc(C(=O)N[C@@H](Cc2ccccc2)[C@H](O)CNCc2cncc(C(C)C)c2)cc(C(=O)N(C)Cc2nc(C)cs2)c1 [Compound 32, N1-((2S,3R)-3-hydroxy-4-((5-isopropylpyridin-3-yl)methylamino)-1-phenylbutan-2-yl)-N3,5-dimethyl-N3-((4-methylthiazol-2-yl)methyl)isophthalamide] | < 1000 | < 300 | < 300 | < 300 | 
COC(=O)c1cc(C(=O)N[C@@H](Cc2ccccc2)[C@H](O)CNCc2cccc(OC)c2)cc(C(=O)N(C)Cc2nc(C)cs2)c1 [Compound 17, methyl 3-((2S,3R)-3-hydroxy-4-(3-methoxybenzylamino)-1-phenylbutan-2-ylcarbamoyl)-5-(methyl((4-methylthiazol-2-yl)methyl)carbamoyl)benzoate] | < 1000 | < 300 | < 300 | > 501 | 
C[C@@H](NC(=O)c1cc(C(=O)N[C@@H](Cc2ccccc2)[C@H](O)CNCc2cncc(C(F)(F)F)c2)cc(N(C)S(C)(=O)=O)c1)c1ccccc1 [Compound 81, N1-((2S,3R)-3-hydroxy-1-phenyl-4-((5-(trifluoromethyl)pyridin-3-yl)methylamino)butan-2-yl)-5-(N-methylmethylsulfonamido)-N3-((R)-1-phenylethyl)isophthalamide] | < 1000 | < 300 | > 501 | < 300 | 
C[C@@H](NC(=O)c1cc(C(=O)N[C@@H](Cc2ccccc2)[C@H](O)CNCc2cccc(O)c2)cc(N(C)S(C)(=O)=O)c1)c1ccccc1 [Compound 71, N1-((2S,3R)-3-hydroxy-4-(3-hydroxybenzylamino)-1-phenylbutan-2-yl)-5-(N-methylmethylsulfonamido)-N3-((R)-1-phenylethyl)isophthalamide] | < 1000 | < 300 | > 501 | > 501 | 
COc1cc(CNC[C@@H](O)[C@H](Cc2ccccc2)NC(=O)c2cccc(C(=O)N(C)Cc3nc(C)cs3)c2)cc(C(=O)O)c1 [Compound 72, 3-(((2R,3S)-2-hydroxy-3-(3-(methyl((4-methylthiazol-2-yl)methyl)carbamoyl)benzamido)-4-phenylbutylamino)methyl)-5-methoxybenzoic acid] | 1000 to 5000 | < 300 | > 501 | > 501 | 
Cc1csc(CN(C)C(=O)c2cccc(C(=O)N[C@@H](Cc3ccccc3)[C@H](O)CNCc3cncc(C(C)(C)F)c3)c2)n1 [N1-((2S,3R)-4-((5-(2-fluoropropan-2-yl)pyridin-3-yl)methylam] [N1-((2S,3R)-4-((5-(2-fluoropropan-2-yl)pyridin-3-yl)methylamino)-3-hydroxy-1-phenylbutan-2-yl)-N3-methyl-N3-((4-methylthiazol-2-yl)methyl)isophthalamide] |  |  |  |  | 47
C[C@@H](NC(=O)c1cc(C(=O)N[C@@H](Cc2ccccc2)[C@H](O)CNCc2cccc(I)c2)cc(N(C)S(C)(=O)=O)c1)c1ccccc1 [Compound 88, N1-((2S,3R)-3-hydroxy-4-(3-iodobenzylamino)-1-phenylbutan-2-yl)-5-(N-methylmethylsulfonamido)-N3-((R)-1-phenylethyl)isophthalamide] | < 1000 | < 300 | < 300 | < 300 | 
C[C@@H](NC(=O)c1cc(C(=O)N[C@@H](Cc2ccccc2)[C@H](O)CNCc2cccc(Cl)c2)cc(N(C)S(C)(=O)=O)c1)c1ccccc1 [Compound 86, N1-((2S,3R)-4-(3-chlorobenzylamino)-3-hydroxy-1-phenylbutan-2-yl)-5-(N-methylmethylsulfonamido)-N3-((R)-1-phenylethyl)isophthalamide] | < 1000 | < 300 | 301 to 500 | < 300 | 
Cc1csc(CN(C)C(=O)c2cccc(C(=O)N[C@@H](Cc3ccccc3)[C@H](O)CNCc3cc(C(C)C)cc(N(C)C)c3)c2)n1 [Compound 90, N1-((2S,3R)-4-(3-(dimethylamino)-5-isopropylbenzylamino)-3-hydroxy-1-phenylbutan-2-yl)-N3-methyl-N3-((4-methylthiazol-2-yl)methyl)isophthalamide] | < 1000 | < 300 | < 300 | > 501 | 
C[C@@H](NC(=O)c1cc(C(=O)N[C@@H](Cc2ccccc2)[C@H](O)CNCc2cncc(C(C)(C)F)c2)cc(N(C)S(C)(=O)=O)c1)c1ccccc1 [Compound 89, N1-((2S,3R)-4-((5-(2-fluoropropan-2-yl)pyridin-3-yl)methylamino)-3-hydroxy-1-phenylbutan-2-yl)-5-(N-methylmethylsulfonamido)-N3-((R)-1-phenylethyl)isophthalamide] | < 1000 | < 300 | < 300 | < 300 | 
